Assay results from patent US20210024542A1 (Torcept Therapeutics, Inc., priority 2018, published 2021).

Key:
SNU-C2B = assay: OncoPanel cell proliferation assay, SNU-C2B; assay type: cell-based, human
Description: (§1) Cells were grown in RPMI 1640, 10% FBS, 2 mM L-alanyl-L-glutamine, 1 mM Na pyruvate, or a special medium. Cells were seeded into 384-well plates and incubated in a humidified atmosphere of 5% CO2 at 37° C. Compounds were added the day following cell seeding. At the same time, a time zero untreated cell plate was generated. After a 3-day incubation period, cells were fixed and stained to allow fluorescence imaging of nuclei. Compounds (1 mM stock solutions) were serially diluted in half-log steps from the highest test concentration ([…]), and assayed over 10 concentrations with a maximum assay concentration of 0.1% DMSO. Automated fluorescence microscopy was carried out using a Molecular Devices ImageXpress Micro XL high-content imager, and images were collected with a 4× objective. 16-bit TIFF images were acquired and analyzed with MetaXpress 5.1.0.41 software.
(§2) Cell proliferation was measured by the fluorescence intensity of an incorporated nuclear dye. The output is referred to as the relative cell count, where the measured nuclear intensity is transformed to percent of control (POC) using the following formula: […]
(§3) Cellular response parameters were calculated using nonlinear regression to a sigmoidal single-site dose response model:
(§4) Where y is a response measured at concentration x, A and B are the lower and upper limits of the response, C is the concentration at the response midpoint (EC50), and D is the Hill Slope (Ref. 1).
(§5) EC50 is the test compound concentration at the curve inflection point or half the effective response (parameter C of the fitted curve solution). GI50 is the concentration needed to reduce the observed growth by half (midway between the curve maximum and the time zero value). “Cell Count Activity Area” is an estimate of the integrated area above the curve (Barretina, et al. The Cancer Cell Line Encyclopedia enables predictive modelling of anticancer drug sensitivity. Nature 483: 603-607). […] In rare instances, values <0 or >10 may be observed. […] Curve-fitting, calculations, and report generation was performed using a custom data reduction engine and MathIQ based software (AIM).

SNU-5 = assay: OncoPanel cell proliferation assay, SNU-5; assay type: cell-based, human; conditions: for Relative cell count (%) Mean: SNU-5
Description: as §1, with “Cells” for “Cells were grown in RPMI 1640, 10% FBS, 2 mM L-alanyl-L-glutamine, 1 mM Na pyruvate, or a special medium. Cells”
as §2, §3, §4
GI50 is the concentration needed to reduce the observed growth by half (midway between the curve maximum and the time zero value). […] In rare instances, values <0 or >10 may be observed. […] Curve-fitting, calculations, and report generation was performed using a custom data reduction engine and MathIQ based software (AIM).

T24 = assay: OncoPanel cell proliferation assay, T24; assay type: cell-based, human; conditions: for Relative cell count (%) Mean: T24
Description: as §1, §2, §3, §4, §5

PC-3 = assay: OncoPanel cell proliferation assay, PC-3; conditions: for Relative cell count (%) Mean: PC-3
Description: (§6) Cells were seeded into 384-well plates and incubated in a humidified atmosphere of 5% CO2 at 37° C. Compounds were added the day following cell seeding. At the same time, a time zero untreated cell plate was generated. After a 3-day incubation period, cells were fixed and stained to allow fluorescence imaging of nuclei. Compounds (1 mM stock solutions) were serially diluted in half-log steps from the highest test concentration (1 micromol), and assayed over 10 concentrations with a maximum assay concentration of 0.1% DMSO. Automated fluorescence microscopy was carried out using a Molecular Devices ImageXpress Micro XL high-content imager, and images were collected with a 4× objective. 16-bit TIFF images were acquired and analyzed with MetaXpress 5.1.0.41 software.

RKOE6 = assay: OncoPanel cell proliferation assay, RKOE6; conditions: for Relative cell count (%) Mean: RKOE6
Description: as §6

SHP-77 = assay: OncoPanel cell proliferation assay, SHP-77; conditions: for Relative cell count (%) Mean: SHP-77
Description: as §6

Question: What does the source list for `CO[C@H]1C[C@@H]2CC[C@@H](C)[C@@](O)(O2)C(=O)C(=O)N2CCCC[C@H]2C(=O)O[C@H]([C@H](C)C[C@@H]2C[C@@H]3C[C@H]2C[C@H]3O)CC(=O)[C@H](C)/C=C(\C)[C@@H](O)[C@@H](OC)C(=O)[C@H](C)C[C@H](C)/C=C/C=C/C=C/1C` [Formula I, 37R-hydroxynorbornylrapamycin]?
Answer: Relative cell count (%) Mean (SNU-C2B; 1.00E+00 microM): 58.7%; Relative cell count (%) Mean (SNU-C2B; 1.00E−01 microM): 65.6%; Relative cell count (%) Mean (SNU-C2B; 1.00E−02 microM): 68.6%; Relative cell count (%) Mean (SNU-C2B; 1.00E−03 microM): 73.7%; Relative cell count (%) Mean (SNU-C2B; 1.01E−04 microM): 89.1%; Relative cell count (%) Mean (SNU-C2B; 3.16E−01 microM): 55.1%; Relative cell count (%) Mean (SNU-C2B; 3.17E−02 microM): 63.2%; Relative cell count (%) Mean (SNU-C2B; 3.17E−03 microM): 71.6%; Relative cell count (%) Mean (SNU-C2B; 3.18E−04 microM): 79.6%; Relative cell count (%) Mean (SNU-C2B; 3.18E−05 microM): 83.2%; EC50 (SNU-C2B; Homo sapiens, 72 h, 3-day incubation, read-out: Cell Count EC50): 2.07 nM; GI50 (SNU-C2B; Homo sapiens, 72 h, 3-day incubation, read-out: Cell Count GI50): 24.1 nM; IC50 (SNU-C2B; Homo sapiens, 72 h, 3-day incubation, read-out: Cell Count IC50): > 1000 nM; Cell Count Activity Area (SNU-C2B; scale 0-10): 2.30; EC50 (SNU-5; Homo sapiens, 72 h, SNU-5, 3-day incubation, read-out: Cell Count EC50): 2.05 nM; GI50 (SNU-5; Homo sapiens, 72 h, SNU-5, 3-day incubation, read-out: Cell Count GI50): 23.8 nM; IC50 (SNU-5; Homo sapiens, 72 h, SNU-5, 3-day incubation, read-out: Cell Count IC50): > 1000 nM; Cell Count Activity Area (SNU-5; SNU-5, scale 0-10): 2.14; Relative cell count (%) Mean (SNU-5; 1.00E+00 microM): 62.8%; Relative cell count (%) Mean (SNU-5; 1.00E−01 microM): 65.7%; Relative cell count (%) Mean (SNU-5; 1.00E−02 microM): 73.2%; Relative cell count (%) Mean (SNU-5; 1.00E−03 microM): 84.5%; Relative cell count (%) Mean (SNU-5; 1.01E−04 microM): 95.3%; Relative cell count (%) Mean (SNU-5; 3.16E−01 microM): 64.0%; Relative cell count (%) Mean (SNU-5; 3.17E−02 microM): 65.8%; Relative cell count (%) Mean (SNU-5; 3.17E−03 microM): 77.6%; Relative cell count (%) Mean (SNU-5; 3.18E−04 microM): 91.2%; Relative cell count (%) Mean (SNU-5; 3.18E−05 microM): 96.3%; EC50 (T24; Homo sapiens, T-24, 72 h, T24, 3-day incubation, read-out: Cell Count EC50): 0.102 nM; GI50 (T24; Homo sapiens, T-24, 72 h, T24, 3-day incubation, read-out: Cell Count GI50): 0.475 nM; IC50 (T24; Homo sapiens, T-24, 72 h, T24, 3-day incubation, read-out: Cell Count IC50): 0.905 nM; Cell Count Activity Area (T24; T24, scale 0-10): 4.92; Relative cell count (%) Mean (T24; 1.00E+00 microM): 38.7%; Relative cell count (%) Mean (T24; 1.00E−01 microM): 41.3%; Relative cell count (%) Mean (T24; 1.00E−02 microM): 43.9%; Relative cell count (%) Mean (T24; 1.00E−03 microM): 49.5%; Relative cell count (%) Mean (T24; 1.01E−04 microM): 68.7%; Relative cell count (%) Mean (T24; 3.16E−01 microM): 37.1%; Relative cell count (%) Mean (T24; 3.17E−02 microM): 42.0%; Relative cell count (%) Mean (T24; 3.17E−03 microM): 46.0%; Relative cell count (%) Mean (T24; 3.18E−04 microM): 57.0%; Relative cell count (%) Mean (T24; 3.18E−05 microM): 84.1%; EC50 (PC-3; Homo sapiens, PC-3, 72 h, read-out: Cell Count EC50): 0.346 nM; GI50 (PC-3; Homo sapiens, PC-3, 72 h, read-out: Cell Count GI50): 1.89 nM; IC50 (PC-3; Homo sapiens, PC-3, 72 h, read-out: Cell Count IC50): 9.55 nM; Cell Count Activity Area (PC-3; PC-3, scale 0-10): 3.97; Relative cell count (%) Mean (PC-3; 1.00E+00 microM): 42.2%; Relative cell count (%) Mean (PC-3; 1.00E−01 microM): 47.9%; Relative cell count (%) Mean (PC-3; 1.00E−02 microM): 53.6%; Relative cell count (%) Mean (PC-3; 1.00E−03 microM): 59.2%; Relative cell count (%) Mean (PC-3; 1.01E−04 microM): 87.3%; Relative cell count (%) Mean (PC-3; 3.16E−01 microM): 43.8%; Relative cell count (%) Mean (PC-3; 3.17E−02 microM): 47.1%; Relative cell count (%) Mean (PC-3; 3.17E−03 microM): 59.0%; Relative cell count (%) Mean (PC-3; 3.18E−04 microM): 69.1%; Relative cell count (%) Mean (PC-3; 3.18E−05 microM): 93.7%; EC50 (RKOE6; Homo sapiens, RKOE6, 72 h, read-out: Cell Count EC50): 0.201 nM; GI50 (RKOE6; Homo sapiens, RKOE6, 72 h, read-out: Cell Count GI50): 1.07 nM; IC50 (RKOE6; Homo sapiens, RKOE6, 72 h, read-out: Cell Count IC50): 2.88 nM; Cell Count Activity Area (RKOE6; RKOE6, scale 0-10): 4.44; Relative cell count (%) Mean (RKOE6; 1.00E+00 microM): 41.6%; Relative cell count (%) Mean (RKOE6; 1.00E−01 microM): 43.0%; Relative cell count (%) Mean (RKOE6; 1.00E−02 microM): 47.6%; Relative cell count (%) Mean (RKOE6; 1.00E−03 microM): 55.7%; Relative cell count (%) Mean (RKOE6; 1.01E−04 microM): 73.6%; Relative cell count (%) Mean (RKOE6; 3.16E−01 microM): 41.0%; Relative cell count (%) Mean (RKOE6; 3.17E−02 microM): 42.9%; Relative cell count (%) Mean (RKOE6; 3.17E−03 microM): 52.5%; Relative cell count (%) Mean (RKOE6; 3.18E−04 microM): 66.1%; Relative cell count (%) Mean (RKOE6; 3.18E−05 microM): 92.5%; EC50 (SHP-77; Homo sapiens, SHP77, 72 h, read-out: Cell Count EC50): 309 nM; GI50 (SHP-77; Homo sapiens, SHP77, 72 h, read-out: Cell Count GI50): > 1000 nM; IC50 (SHP-77; Homo sapiens, SHP77, 72 h, read-out: Cell Count IC50): > 1000 nM; Cell Count Activity Area (SHP-77; SHP-77, scale 0-10): 1.18; Relative cell count (%) Mean (SHP-77; 1.00E+00 microM): 71.6%; Relative cell count (%) Mean (SHP-77; 1.00E−01 microM): 83.4%; Relative cell count (%) Mean (SHP-77; 1.00E−02 microM): 94.0%; Relative cell count (%) Mean (SHP-77; 1.00E−03 microM): 96.5%; Relative cell count (%) Mean (SHP-77; 1.01E−04 microM): 98.0%; Relative cell count (%) Mean (SHP-77; 3.16E−01 microM): 75.9%; Relative cell count (%) Mean (SHP-77; 3.17E−02 microM): 84.9%; Relative cell count (%) Mean (SHP-77; 3.17E−03 microM): 89.5%; Relative cell count (%) Mean (SHP-77; 3.18E−04 microM): 101.7%; Relative cell count (%) Mean (SHP-77; 3.18E−05 microM): 99.1%
